Laboratory results published in patent US20230116733A1, “NOVEL INDAZOLE DERIVATIVE AND USE THEREOF” (KOREA RESEARCH INSTITUTE OFCHEMICAL TECHNOLOGY, priority 2019, published 2023).
Where a name gives a salt, the structure may show the parent alone. Read-outs that look alike come from different tables or passages of the source.

Legend:
A549 = assay: Assay for anticancer activity, cell viability (Cell Counting Kit-8); assay type: cell-based; settings: A549 cells, 10 μM compound, 3 days
Procedure: (§1) Assay for anticancer activity was conducted as follows. Corresponding cancer cells were seeded at a density of 4,000 cells/well into 96-well plates and stabilized for 24 hours. Thereafter, the cells in each well were treated with 10 μM of the each of the compounds for 3 days. Then, cell viability was assayed using Cell Counting Kit-8 from Dojindo.

HepG2 = assay: as above; assay type: cell-based; settings: HepG2 cells, 10 μM compound, 3 days
Procedure: as §1

TRIB2 = molecular target: T1, TRIB2 (Homo sapiens, UniProt Q92519); assay: TRIB2 kinase activity assay (Eurofins, 33P-ATP filter binding); assay type: biochemical; parameters: purchased Eurofins
T1 sequence (Q92519 1-343): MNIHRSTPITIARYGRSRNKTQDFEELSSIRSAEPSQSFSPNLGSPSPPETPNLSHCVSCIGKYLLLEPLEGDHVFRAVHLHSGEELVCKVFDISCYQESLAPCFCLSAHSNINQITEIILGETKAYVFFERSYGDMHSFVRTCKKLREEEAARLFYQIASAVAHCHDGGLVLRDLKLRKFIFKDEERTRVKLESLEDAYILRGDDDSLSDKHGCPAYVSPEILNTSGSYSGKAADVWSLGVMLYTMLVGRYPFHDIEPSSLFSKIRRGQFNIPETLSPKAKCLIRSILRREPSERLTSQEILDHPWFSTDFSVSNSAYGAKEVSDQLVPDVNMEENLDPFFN
Procedure: TRIB2 kinase activity assay was conducted in Eurofins. […] Afterward, the reaction was terminated with 0.5% phosphoric acid.

[1] = human TRIB2, 15 μM gamma-33P-ATP, 120 minutes at room temperature, read-out: TRIB2 Kimase activity assay IC50

| Compound | Cell viability (% of Con. 10 μM) A549 (A549) | Cell viability (% of Con. 10 μM) HepG2 (HepG2) | IC50 (TRIB2; [1]) [nM] | IC50 (TRIB2) [nM] |
| --- | --- | --- | --- | --- |
| Cn1cc(-c2ccc3[nH]nc(C(=O)Nc4ccncc4)c3c2)cn1 [Compound 29, 5-(1-methyl-1H-pyrazol-4-yl)-N-(pyridin-4-yl)-1H-indazole-3-carboxamide] | 31 % of Con. | 16 % of Con. | 10 to 100 |  |
| O=C(c1n[nH]c2ccc(-c3cccnc3F)cc12)N1CCc2ccccc2C1 [Compound 21, (3,4-dihydroisoquinolin-2-(1H)-yl)(5-(2-fluoropyridin-3-yl)-1H-indazol-3-yl)methanone] |  |  | 100 to 1000 |  |
| CC(C)n1cc(-c2ccc3[nH]nc(C(=O)Nc4ccncc4)c3c2)cn1 [Compound 28, 5-(1-isopropyl-1H-pyrazol-4-yl)-N-(pyridin-4-yl)-1H-indazole-3-carboxamide] | 17 % of Con. | 16 % of Con. | 10 to 100 |  |
| Cn1ncc2c(NC(=O)c3n[nH]c4ccc(-c5cccnc5F)cc34)ccnc21 [Compound 65, 5-(2-fluoropyridin-3-yl)-N-(1-methyl-1H-pyrazolo[3,4-b]pyridin-4-yl)-1H-indazole-3-carboxamide] | 24 % of Con. | 28 % of Con. | 10 to 100 |  |
| O=C(Nc1ccncc1)c1n[nH]c2ccc(-c3cn[nH]c3)cc12 [Compound 26, 5-(1H-pyrazol-4-yl)-N-(pyridin-4-yl)-1H-indazole-3-carboxamide] | 30 % of Con. | 24 % of Con. | 10 to 100 |  |
| N[C@H]1CC[C@H](NC(=O)c2n[nH]c3ccc(-c4cccnc4F)cc23)CC1 [Compound 19, N-((1r, 4r)-4-aminocyclohexyl)-5-(2-fluoropyridin-3-yl)-1H-indazole-3-carboxamide] |  |  | 100 to 1000 |  |
| O=C(NC1CCN(C(=O)c2ccccc2)CC1)c1n[nH]c2ccc(-c3cccnc3F)cc12 [Compound 12, N-(1-benzoylpiperidin-4-yl)-5-(2-fluoropyridin-3-yl)-1H-indazole-3-carboxamide] |  |  | 10 to 100 |  |
| O=C(NCc1ccncc1)c1n[nH]c2ccc(-c3cccnc3F)cc12 [Compound 51, 5-(2-fluoropyridin-3-yl)-N-(pyridin-4-ylmethyl)-1H-indazole-3-carboxamide] | 44 % of Con. | 37 % of Con. | 10 to 100 |  |
| O=C(NC1CCNCC1)c1n[nH]c2ccc(-c3ccnc(F)c3)cc12 [Compound 13, 5-(2-fluoropyridin-4-yl)-N-(piperidin-4-yl)-1H-indazole-3-carboxamide] |  |  | 10 to 100 |  |
| O=C(Nc1ccc2c(c1)CN(C(=O)C(F)(F)F)CC2)c1nn(C2CCCCO2)c2ccc(-c3cccnc3F)cc12 (stereo not drawn) [Compound 53, 5-(2-fluoropyridin-3-yl)-1-(tetrahydro-2H-pyran-2-yl)-N-(2-(2,2,2-trifluoroacetyl)-1,2,3,4-tetrahydroisoquinolin-7-yl)-1H-indazole-3-carboxamide] | 13 % of Con. | 10 % of Con. | 1 to 10 |  |
| O=Cc1ccc(-c2ccc3[nH]nc(C(=O)Nc4ccncc4)c3c2)o1 [Compound 47, 5-(5-formylfuran-2-yl)-N-(pyridin-4-yl)-1H-indazole-3-carboxamide] | 55 % of Con. | 32 % of Con. | 10 to 100 |  |
| N[C@H]1CC[C@@H](NC(=O)c2n[nH]c3ccc(-c4cccnc4F)cc23)CC1 [Compound 18, N-((1s, 4s)-4-aminocyclohexyl)-5-(2-fluoropyridin-3-yl)-1H-indazole-3-carboxamide] |  |  | 100 to 1000 |  |
| O=C(NC1CCN(C(=O)c2ccccc2)CC1)c1nn(C(=O)c2ccccc2)c2ccc(-c3cccnc3F)cc12 [Compound 10, 1-benzoyl-N-(1-benzoylpiperidin-4-yl)-5-(2-fluoropyridin-3-yl)-1H-indazole-3-carboxamide] |  |  | 10 to 100 |  |
| O=C(Nc1ccc2c(c1)CN(C(=O)C(F)(F)F)CC2)c1n[nH]c2ccc(-c3cccnc3F)cc12 [Compound 24, 5-(2-fluoropyridin-3-yl)-N-(2-(2,2,2-trifluoroacetyl)-1,2,3,4-tetrahydroisoquinolin-7-yl)-1H-indazole-3-carboxamide] |  | 10 % of Con. | 1 to 10 |  |
| O=C(Nc1ccncc1)c1n[nH]c2ccc(-c3cnn(Cc4ccccc4)c3)cc12 [Compound 33, 5-(1-benzyl-1H-pyrazol-4-yl)-N-(pyridin-4-yl)-1H-indazole-3-carboxamide] | 20 % of Con. |  | 1 to 10 |  |
| O=C(NC1CCN(C(=O)C2CC2)CC1)c1nn(C(=O)C2CC2)c2ccc(-c3cccnc3F)cc12 [Compound 11, 1-(cyclopropanecarbonyl)-N-(1-(cyclopropanecarbonyl)piperidin-4-yl)-5-(2-fluoropyridin-3-yl)-1H-indazole-3-carboxamide] |  |  | 100 to 1000 |  |
| CC1(C)Cc2ccc(NC(=O)c3n[nH]c4ccc(-c5cccnc5F)cc34)cc2CN1 [Compound 71, N-(3,3-dimethyl-1,2,3,4-tetrahydroisoquinolin-7-yl)-5-(2-fluoropyridin-3-yl)-1H-indazole-3-carboxamide] | 10 % of Con. | 9 % of Con. | 1 to 10 |  |
| O=C(NCCN1CCOCC1)c1n[nH]c2ccc(-c3cccnc3F)cc12 [Compound 22, 5-(2-fluoropyridin-3-yl)-N-(2-morpholinoethyl)-1H-indazole-3-carboxamide] |  |  | 100 to 1000 |  |
| O=C(N[C@H]1CC[C@H](O)CC1)c1n[nH]c2ccc(-c3cccnc3F)cc12 [Compound 16, 5-(2-fluoropyridin-3-yl)-N-((1r,4r)-4-hydroxycyclohexyl)-1H-indazole-3-carboxamide] |  |  | 100 to 1000 |  |
| CC1NCCc2ccc(NC(=O)c3n[nH]c4ccc(-c5cccnc5F)cc34)cc21 (stereo not drawn) [Compound 63, 5-(2-fluoropyridin-3-yl)-N-(1-methyl-1,2,3,4-tetrahydroisoquinolin-7-yl)-1H-indazole-3-carboxamide] | 4 % of Con. | 7 % of Con. | 1 to 10 |  |
| O=C(NC1CCCCC1)c1n[nH]c2ccc(-c3cccnc3F)cc12 [Compound 14, N-Cyclohexyl-5-(2-fluoropyridin-3-yl)-1H-indazole-3-carboxamide] |  |  | 100 to 1000 |  |
| O=Cc1cc2c(cc1-c1ccc3[nH]nc(C(=O)Nc4ccncc4)c3c1)OCO2 [Compound 52, 5-(6-formylbenzo[d][1,3]dioxol-5-yl)-N-(pyridin-4-yl)-1H-indazole-3-carboxamide] | 39 % of Con. | 32 % of Con. |  | 10 to 100 |
| CC1(C)NCCc2ccc(NC(=O)c3n[nH]c4ccc(-c5cccnc5F)cc34)cc21 [Compound 59, N-(1,1-dimethyl-1,2,3,4-tetrahydroisoquinolin-7-yl)-5-(2-fluoropyridin-3-yl)-1H-indazole-3-carboxamide] | 2 % of Con. | 6 % of Con. | 1 to 10 |  |
| O=C(Nc1ccncc1)c1n[nH]c2ccc(-c3cnn(C4CCNCC4)c3)cc12 [Compound 73, 5-(1-(piperidin-4-yl)-1H-pyrazol-4-yl)-N-(pyridin-4-yl)-1H-indazole-3-carboxamide hydrochloride] | 49 % of Con. | 36 % of Con. |  | 10 to 100 |
| O=C(Nc1ccc2c(c1)CCNC2)c1n[nH]c2ccc(-c3cccnc3F)cc12 [Compound 64, 5-(2-fluoropyridin-3-yl)-N-(1,2,3,4-tetrahydroisoquinolin-6-yl)-1H-indazole-3-carboxamide] | 8 % of Con. | 7 % of Con. | 1 to 10 |  |
| O=C(Nc1ccncc1)c1n[nH]c2ccc(-c3ccoc3)cc12 [Compound 34, 5-(furan-3-yl)-N-(pyridin-4-yl)-1H-indazole-3-carboxamide] | 51 % of Con. | 49 % of Con. | 10 to 100 |  |
| O=C(Nc1ccc2c(c1)CNCC2)c1n[nH]c2ccc(-c3cccnc3F)cc12 [Compound 55, 5-(2-fluoropyridin-3-yl)-N-(1,2,3,4-tetrahydroisoquinolin-7-yl)-1H-indazole-3-carboxamide hydrochloride] | 10 % of Con. | 12 % of Con. | 1 to 10 |  |
| O=C(Nc1ccncc1)c1nn(C2CCCCO2)c2ccc(-c3cccnc3F)cc12 (stereo not drawn) [Compound 66, 5-(2-fluoropyridin-3-yl)-N-(pyridin-4-yl)-1-(tetrahydro-2H-pyran-2-yl)-1H-indazole-3-carboxamide] | 55 % of Con. | 11 % of Con. |  | 10 to 100 |
| O=C(NC1CCNC1)c1n[nH]c2ccc(-c3cccnc3F)cc12 (stereo not drawn) [Compound 20, 5-(2-fluoropyridin-3-yl)-N-(pyrrodin-3-yl)-1H-indazole-3-carboxamide] |  |  | 10 to 100 |  |
